Data published in patent publication US20230052740A1, “MODULATORS OF CIRCADIAN RHYTHMS AND USES THEREOF” (The Regents of the University of California, priority 2019, published 2023).

How the values were obtained:
[1] = test system: hMT2; assay: 2-[125I]-iodomelatonin competition binding, CHO cell membranes; conditions: in 2-[125I]-iodomelatonin binding assays
Protocol: For receptor binding studies, '7447 was dissolved in 50% DMSO/50% ethanol for 13 mM stock solution, diluted 1/10 in 100% ethanol then 1/10 again in 50% ethanol/50% Tris-HCl buffer. Both '3384 and '4226 were dissolved in 100% ethanol for 13 mM stock solutions and then diluted 1/10 in 50% ethanol/50% Tris-HCl buffer. Further dilutions were done in Tris-HCl buffer.
Assays were incubated for 1 hour at 25° C. Bound radioligand was separated from freeby rapidvacuum filtration using glass microfiber filters (Whatman, Krackeler Scientific, Inc., Albany N.Y., USA) saturated in 0.5% polyethylenimine solution.
Affinity shifts or lack thereof with G protein inactivation indicate apparent efficacy (Lefkowitz, R. J. et al., J Biol Chem 251, 4686-4692, 1976) as ligands are classified as agonists (ΔpKi% MLT>20%), antagonists (ΔpKi% MLT<20%, >−20%), or inverse agonists (ΔpKi% MLT<−20%) accordingly.

[2] = biological target: T1, 5HT2c (Homo sapiens, UniProt P28335); assay: PRESTO-Tango GPCR-ome counter-screen, agonist mode; assay type: cell-based; conditions: arrestin recruitment Tango, in words
T1 construct: Tango fusion elements (printed only as 'PRESTO-Tango receptor DNAs'); expressed in transfected cells; host or cells: HTLA cells
T1 sequence (P28335 33-458): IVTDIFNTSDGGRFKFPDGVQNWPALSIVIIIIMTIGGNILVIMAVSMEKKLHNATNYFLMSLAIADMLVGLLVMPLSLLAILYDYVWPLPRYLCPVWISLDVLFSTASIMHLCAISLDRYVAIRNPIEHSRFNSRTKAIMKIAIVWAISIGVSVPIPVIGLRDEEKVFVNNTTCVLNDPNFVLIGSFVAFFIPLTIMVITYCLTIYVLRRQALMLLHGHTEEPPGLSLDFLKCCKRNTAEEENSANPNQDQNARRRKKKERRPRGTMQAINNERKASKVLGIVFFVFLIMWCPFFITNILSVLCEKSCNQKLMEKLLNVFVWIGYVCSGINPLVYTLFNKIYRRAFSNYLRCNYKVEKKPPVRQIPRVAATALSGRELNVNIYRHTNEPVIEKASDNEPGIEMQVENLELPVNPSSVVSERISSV
Protocol: Screening of compounds in the PRESTO-Tango GPCR-ome was accomplished as previously described (Kroeze, supra). with several modifications. First, HTLA cells were plated in DMEM with 10% FBS and 10 U/mL penicillin-streptomycin. Next, the cells were transfected using an in-plate PEI method (Longo, P. A. et al., Methods Enzymol 529, 227-240, 2013). PRESTO-Tango receptor DNAs were resuspended in OptiMEM and hybridized with PEI prior to dilution and distribution to 384-well plates and subsequent addition to cells. After overnight incubation, drugs were added to cells without replacement of the medium. The remaining steps of the PRESTO-Tango protocol were followed as previously described.

[3] = test system: C3H/HeN mice; assay: Re-entrainment of running wheel activity after 6 h advance of dark onset (jet-lag model); assay type: in vivo; conditions: 30 μg/mouse s.c., in words; for rate of re-entrainment to the new light-dark cycle: 3 days, WT
Description: Male and female C3H/HeN (C3H) wild-type (WT), MT1 knockout (MT1KO), and MT2 knockout (MT2KO) mice (average 6.28 months) used in this study were raised in our breeding colony at University at Buffalo. […] Genotype was confirmed using tail samples at the end of each experiment and was verified periodically during the tenure of the colony. The strains of mice in our breeding colony were re-derived periodically by backcrossing with WT mice to reduce genetic drift.
Mice were group housed (3-5 per cage) with corncob bedding in polycarbonate translucent cages (30×19 cm) and maintained in a 14/10 light-dark (LD) cycle (Zeitgeber time 0 or ZT0 corresponds to Lights ON and ZT 14 to Lights OFF) in temperature and humidity controlled rooms with ad libitum access to food and water in the Laboratory Animal Facility at the University at Buffalo. Light levels were 200-300 lux at the level of the cage. Treatments and animal care performed in the dark were under a dim red safelight (15 watts, Kodak 1A filter) with illuminance of less than 3-5 lux (Benloucif, S. & Dubocovich, M. L. J Biol Rhythms 11, 113-125, (1996). All experimental procedures using mice were conducted in accordance with guidelines set forth by the National Institutes of Health and approved by the University at Buffalo Institutional Animal Care and Use Committee.
Circadian rhythm phase was determined for each mouse using the onset of running wheel activity defined as CT12 (Circadian Time 12). Running wheel activity was measured continuously via magnetic microswitches detecting wheel revolutions with a computer equipped with Clocklab data collection Software™ (Actimetrics: Wilmette, Ill.). All actigraphy data was visualized and analyzed using ClockLab™ and MATLAB™ software. All mice were individually housed in cages (33×15 cm) equipped with running wheels in light-tight ventilated cabinets with controlled temperature and LD cycles (Phenome Technologies: Skokie, Ill.). Male and female mice were housed in separate cabinets for all experiments.
Male and female C3H WT, MT1KO, and MT2KO mice (3 to 6 months) were maintained under a 12:12 LD cycle for at least 2 weeks prior experimental manipulations to allow stable entrainment to dark onset before advance of the LD cycle. Actigraphy data was recorded as described above and all experiment protocols performed as described (Dubocovich, M. L. et al., J Pineal Res 39, 113-120, 2005). On the first day of treatment, the dark onset was advanced 6 h. […] Post treatment, mice were given 14-20 days to re-entrain running wheel activity onsets to the new dark onset. Using exported running wheel activity onsets from actograms, onset hours advanced each day were determined by subtracting this value each day from the average onset of running wheel activity for 3 days prior to treatment for each mouse. Further, using the data from this calculation combined with visualization of actograms, the number of days to reach stable re-entrainment was determined for each mouse.
All statistical analyses as described in further detail for each experiment were conducted using GraphPad Prism 8™ (La Jolla, Calif.). All data sets were visualized for normality using QQ plots of predicted vs. actual residuals. Actigraphy data was generated for visualization blind to treatment prior to the quantification and statistical analysis stages. […] Data in FIGS. 4F & 4G were compared via a two-way ANOVA (3×2: genotype x treatment) with Tukey's post hoc analyses (P<0.05). […]

Row | Structure (SMILES) | MT2/MT1 selectivity [1] | off-target agonist activity on 5HT2c [2] | rate of re-entrainment to the new light-dark cycle [3] | effect on re-entrainment in MT1KO mouse ([3]; MT1KO) | effect on re-entrainment in MT2KO mice ([3]; MT2KO)
1 | COc1ccc(Br)c(CNc2cccnc2)c1 [ZINC128734226] | 54 | did have some activity on 5HT2c | – | – | –
2 | CC(C)c1ccc(CNc2cccc(-c3ncn[nH]3)c2)cc1 [ZINC157673384] | – | – | decelerated re-entrainment | – | –
3 | Clc1ccc(CNc2cccc(-c3nnc[nH]3)c2)c(Br)c1 [ZINC555417447] | – | – | decelerated re-entrainment | eliminated | greater deceleration
